# Assay results: patent US7943770B2, “Fused quinoline derivative and use thereof” (Takeda Pharmaceutical Company Limited, priority 2004, dated 2011)
# Target: T1, hNK2 receptor (Homo sapiens, UniProt P21452)
# T1 construct: host or cells: CHO cells
# T1 sequence (P21452 1-398): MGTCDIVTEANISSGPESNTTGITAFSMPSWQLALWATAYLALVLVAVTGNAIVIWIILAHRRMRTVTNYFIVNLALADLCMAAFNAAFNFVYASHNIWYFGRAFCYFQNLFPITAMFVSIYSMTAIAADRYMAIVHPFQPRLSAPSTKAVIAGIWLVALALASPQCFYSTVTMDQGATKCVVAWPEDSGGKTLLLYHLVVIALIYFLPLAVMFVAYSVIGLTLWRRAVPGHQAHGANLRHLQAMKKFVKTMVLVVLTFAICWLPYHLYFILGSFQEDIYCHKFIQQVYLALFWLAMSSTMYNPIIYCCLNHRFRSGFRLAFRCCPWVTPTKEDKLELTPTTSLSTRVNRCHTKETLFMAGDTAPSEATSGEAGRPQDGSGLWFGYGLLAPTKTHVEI
# Assay: Radio-ligand ([125I]-NKA) receptor binding inhibitory activity using membrane fraction of hNK2 receptor-expressing CHO cell
# Conditions: membrane fraction of hNK2 receptor-expressing CHO cells, 25° C., 30 min
# Procedure, shortened: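 Inhibition of [125I]-NKA binding ([…] solution added) measured after 30 min at 25 °C using hNK2-CHO membrane fraction (20 μg/mL suspension) in pH 7.4 Tris buffer containing MnCl2, BSA and protease inhibitors. Filter-bound counts read; activity calculated as fraction of specific binding, non-specific defined with unlabeled NKA.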
smiles,measurement,value
"COC[C@@H]1Nc2ccccc2[C@H]2[C@@H]1CCN2C(=O)[C@H]1CCCC[C@H]1NC(=O)c1ccc(-n2cccn2)nc1 [Example 288, N-((1R,2S)-2-{[(3aR,4R,9bR)-4-(Methoxymethyl)-2,3,3a,4,5,9b-hexahydro-1H-pyrrolo[3,2-c]quinolin-1-yl]carbonyl}cyclohexyl)-6-(1H-pyrazol-1-yl)nicotinamide]",IC50,< 1 nM
"O=C(NCCCN1CCCC1=O)N[C@@H]1CCCC[C@@H]1C(=O)N1CC[C@@H]2[C@H](c3ccccc3)Nc3ccccc3[C@@H]21 [Example 168, N-[3-(2-oxopyrrolidin-1-yl)propyl]-N′-((1R,2S)-2-{[(3aR,4R,9bR)-4-phenyl-2,3,3a,4,5,9b-hexahydro-1H-pyrrolo[3,2-c]quinolin-1-yl]carbonyl}cyclohexyl)urea]",IC50,< 10 nM
"N#Cc1ccc(NC(=O)N[C@@H]2CCCC[C@@H]2C(=O)N2CC[C@@H]3[C@H](c4ccccc4)Nc4ccccc4[C@@H]32)cc1 [Example 147, N-(4-Cyanophenyl)-N′-((1R,2S)-2-{[(3aR,4R,9bR)-4-phenyl-2,3,3a,4,5,9b-hexahydro-1H-pyrrolo[3,2-c]quinolin-1-yl]carbonyl}cyclohexyl)urea]",IC50,< 10 nM
"O=C(N[C@@H]1CCCC[C@@H]1C(=O)N1CC[C@@H]2[C@H](c3ncc[nH]3)Nc3ccccc3[C@@H]21)c1ccccc1F [Example 302, 2-Fluoro-N-((1R,2S)-2-{[(3aR,4R,9bR)-4-(1H-imidazol-2-yl)-2,3,3a,4,5,9b-hexahydro-1H-pyrrolo[3,2-c]quinolin-1-yl]carbonyl}cyclohexyl)benzamide]",IC50,< 1 nM
"COC[C@@H]1Nc2ccccc2[C@H]2[C@@H]1CCN2C(=O)[C@H]1CCCC[C@H]1NC(=O)c1ccc(S(C)(=O)=O)cc1 [Example 278, N-((1R,2S)-2-{[(3aR,4R,9bR)-4-(Methoxymethyl)-2,3,3a,4,5,9b-hexahydro-1H-pyrrolo[3,2-c]quinolin-1-yl]carbonyl}cyclohexyl)-4-(methylsulfonyl)benzamide]",IC50,< 10 nM
"COC[C@@H]1Nc2ccccc2[C@H]2[C@@H]1CCN2C(=O)[C@H]1CCCC[C@H]1NC(=O)c1ccc(C(F)(F)F)cc1 [Example 210, N-((1R,2S)-2-{[(3aR,4R,9bR)-4-(Methoxymethyl)-2,3,3a,4,5,9b-hexahydro-1H-pyrrolo[3,2-c]quinolin-1-yl]carbonyl}cyclohexyl)-4-(trifluoromethyl)benzamide]",IC50,< 1 nM
"O=C(N[C@@H]1CCCC[C@@H]1C(=O)N1CC[C@@H]2[C@H](c3ccccc3)Nc3ccccc3[C@@H]21)c1ccncc1 [Example 91, N-((1R,2S)-2-{[(3aR,4R,9bR)-4-Phenyl-2,3,3a,4,5,9b-hexahydro-1H-pyrrolo[3,2-c]quinolin-1-yl]carbonyl}cyclohexyl)isonicotinamide]",IC50,< 10 nM
"Cc1ccc(C(=O)N[C@@H]2CCCC[C@@H]2C(=O)N2CC[C@@H]3[C@H](c4ccccc4)Nc4ccccc4[C@@H]32)cc1 [Example 99, 4-Methyl-N-((1R,2S)-2-{[(3aR,4R,9bR)-4-phenyl-2,3,3a,4,5,9b-hexahydro-1H-pyrrolo[3,2-c]quinolin-1-yl]carbonyl}cyclohexyl)benzamide]",IC50,< 10 nM
"O=C(N[C@@H]1CCCC[C@@H]1C(=O)N1CC[C@@H]2[C@H](c3ccccc3)Nc3c(F)cccc3[C@@H]21)c1ccccc1 (relative stereo) [Example 8, N-((1R,2S)-2-{[(3aR*,4R*,9bR*)-6-Fluoro-4-phenyl-2,3,3a,4,5,9b-hexahydro-1H-pyrrolo[3,2-c]quinolin-1-yl]carbonyl}cyclohexyl)benzamide]",IC50,< 10 nM
"O=C(CCCCCN1CCOCC1)N[C@@H]1CCCC[C@@H]1C(=O)N1CC[C@@H]2[C@H](c3ccccc3)Nc3ccccc3[C@@H]21 [Example 117, 6-Morpholin-4-yl-N-((1R,2S)-2-{[(3aR,4R,9bR)-4-phenyl-2,3,3a,4,5,9b-hexahydro-1H-pyrrolo[3,2-c]quinolin-1-yl]carbonyl}cyclohexyl)hexanamide]",IC50,< 10 nM
"O=C(N[C@@H]1CCCC[C@@H]1C(=O)N1CC[C@@H]2[C@H](c3cocn3)Nc3ccccc3[C@@H]21)c1ccccc1 [Example 76, N-((1R,2S)-2-{[(3aR,4R,9bR)-4-(1,3-Oxazol-4-yl)-2,3,3a,4,5,9b-hexahydro-1H-pyrrolo[3,2-c]quinolin-1-yl]carbonyl}cyclohexyl)benzamide]",IC50,< 10 nM
"Cn1ccnc1C(=O)N[C@@H]1CCCC[C@@H]1C(=O)N1CC[C@@H]2[C@H](c3ccccc3)Nc3ccccc3[C@@H]21 [Example 132, 1-Methyl-N-((1R,2S)-2-{[(3aR,4R,9bR)-4-phenyl-2,3,3a,4,5,9b-hexahydro-1H-pyrrolo[3,2-c]quinolin-1-yl]carbonyl}cyclohexyl)-1H-imidazole-2-carboxamide]",IC50,< 10 nM
"O=C(N[C@@H]1CCCC[C@@H]1C(=O)N1CC[C@@H]2[C@H](c3cncs3)Nc3ccccc3[C@@H]21)c1ccccc1 [Example 78, N-((1R,2S)-2-{[(3aR,4R,9bR)-4-(1,3-Thiazol-5-yl)-2,3,3a,4,5,9b-hexahydro-1H-pyrrolo[3,2-c]quinolin-1-yl]carbonyl}cyclohexyl)benzamide]",IC50,< 10 nM
"COC[C@@H]1Nc2ccccc2[C@H]2[C@@H]1CCN2C(=O)[C@H]1CCCC[C@H]1NC(=O)c1ccc(N2CCSCC2)cc1 [Example 291, N-((1R,2S)-2-{[(3aR,4R,9bR)-4-(Methoxymethyl)-2,3,3a,4,5,9b-hexahydro-1H-pyrrolo[3,2-c]quinolin-1-yl]carbonyl}cyclohexyl)-4-thiomorpholin-4-ylbenzamide]",IC50,< 1 nM
"CCC[C@@H]1Nc2ccccc2[C@H]2[C@@H]1CCN2C(=O)[C@H]1CCCC[C@H]1NC(=O)c1ccc(OC)cc1 [Example 194, 4-Methoxy-N-((1R,2S)-2-{[(3aR,4S,9bR)-4-propyl-2,3,3a,4,5,9b-hexahydro-1H-pyrrolo[3,2-c]quinolin-1-yl]carbonyl}cyclohexyl)benzamide]",IC50,< 1 nM
"O=C(NCC(F)(F)F)N[C@@H]1CCCC[C@@H]1C(=O)N1CC[C@@H]2[C@H](c3ccccc3)Nc3ccccc3[C@@H]21 [Example 173, N-((1R,2S)-2-{[(3aR,4R,9bR)-4-Phenyl-2,3,3a,4,5,9b-hexahydro-1H-pyrrolo[3,2-c]quinolin-1-yl]carbonyl}cyclohexyl)-N′-(2,2,2-trifluoroethyl)urea]",IC50,< 10 nM
"COC[C@@H]1Nc2ccccc2[C@H]2[C@@H]1CCN2C(=O)[C@H]1CCCC[C@H]1NC(=O)c1ccc2[nH]ccc2c1 [Example 218, N-((1R,2S)-2-{[(3aR,4R,9bR)-4-(Methoxymethyl)-2,3,3a,4,5,9b-hexahydro-1H-pyrrolo[3,2-c]quinolin-1-yl]carbonyl}cyclohexyl)-1H-indole-5-carboxamide]",IC50,< 1 nM
"O=C(N[C@@H]1CCCC[C@@H]1C(=O)N1CC[C@@H]2[C@H](c3ccccc3)Nc3ccccc3[C@@H]21)c1cccc(F)c1 [Example 96, 3-Fluoro-N-((1R,2S)-2-{[(3aR,4R,9bR)-4-phenyl-2,3,3a,4,5,9b-hexahydro-1H-pyrrolo[3,2-c]quinolin-1-yl]carbonyl}cyclohexyl)benzamide]",IC50,< 10 nM
"N#Cc1cccc(C(=O)N[C@@H]2CCCC[C@@H]2C(=O)N2CC[C@@H]3[C@H](c4ncc[nH]4)Nc4ccccc4[C@@H]32)c1 [Example 308, 3-Cyano-N-((1R,2S)-2-{[(3aR,4R,9bR)-4-(1H-imidazol-2-yl)-2,3,3a,4,5,9b-hexahydro-1H-pyrrolo[3,2-c]quinolin-1-yl]carbonyl}cyclohexyl)benzamide]",IC50,< 1 nM
"O=C(N[C@@H]1CCCC[C@@H]1C(=O)N1CC[C@@H]2[C@H](c3ccccc3)Nc3ccccc3[C@@H]21)c1cnccn1 [Example 127, N-((1R,2S)-2-{[(3aR,4R,9bR)-4-Phenyl-2,3,3a,4,5,9b-hexahydro-1H-pyrrolo[3,2-c]quinolin-1-yl]carbonyl}cyclohexyl)pyrazine-2-carboxamide]",IC50,< 10 nM
"CCCCNC(=O)N[C@@H]1CCCC[C@@H]1C(=O)N1CC[C@@H]2[C@H](c3ncc[nH]3)Nc3ccccc3[C@@H]21 [Example 299, N-Butyl-N′-((1R,2S)-2-{[(3aR,4R,9bR)-4-(1H-imidazol-2-yl)-2,3,3a,4,5,9b-hexahydro-1H-pyrrolo[3,2-c]quinolin-1-yl]carbonyl}cyclohexyl)urea]",IC50,< 1 nM
"O=C(N[C@@H]1CCCC[C@@H]1C(=O)N1CC[C@@H]2[C@H](c3ncc[nH]3)Nc3ccccc3[C@@H]21)c1ccc(Cl)cc1 [Example 303, 4-Chloro-N-((1R,2S)-2-{[(3aR,4R,9bR)-4-(1H-imidazol-2-yl)-2,3,3a,4,5,9b-hexahydro-1H-pyrrolo[3,2-c]quinolin-1-yl]carbonyl}cyclohexyl)benzamide]",IC50,< 1 nM
"O=C(N[C@@H]1CCCC[C@@H]1C(=O)N1CC[C@@H]2[C@H](c3ccccc3)Nc3cc(Cl)ccc3[C@@H]21)c1ccccc1 (relative stereo) [Example 7, N-((1R,2S)-2-{[(3aR*,4R*,9bR*)-7-Chloro-4-phenyl-2,3,3a,4,5,9b-hexahydro-1H-pyrrolo[3,2-c]quinolin-1-yl]carbonyl}cyclohexyl)benzamide]",IC50,< 10 nM
"O=C(NCc1ccc(F)cc1)N[C@@H]1CCCC[C@@H]1C(=O)N1CC[C@@H]2[C@H](c3ccccc3)Nc3ccccc3[C@@H]21 [Example 145, N-(4-Fluorobenzyl)-N′-((1R,2S)-2-{[(3aR,4R,9bR)-4-phenyl-2,3,3a,4,5,9b-hexahydro-1H-pyrrolo[3,2-c]quinolin-1-yl]carbonyl}cyclohexyl)urea]",IC50,< 10 nM
